Values joined by “and” are separate entries in the source; they are usually repeats but may differ in a detail not shown here. Equal values may be shown once.
What was measured:
Assay type in all cases: in vivo
[1] = system: peach aphid (Myzus persicae); experiment: Myzus test (cabbage leaf dip)
Experimental: To produce a suitable preparation of active compound, 1 part by weight of active compound is mixed with the stated amounts of solvent and emulsifier, and the concentrate is diluted with emulsifier-containing water to the desired concentration. Cabbage leaves (Brassica oleracea) which are heavily infested by the peach aphid (Myzus persicae) are treated by being dipped into the preparation of active compound of the desired concentration. After the desired period of time, the kill in % is determined. 100% means that all aphids have been killed; 0% means that none of the aphids have been killed.

[2] = system: larvae of the mustard beetle (Phaedon cochleariae); experiment: Phaedon larvae test (cabbage leaf dip); settings: 1000 ppm
Experimental: (§1) To produce a suitable preparation of active compound, 1 part by weight of active compound is mixed with the stated amounts of solvent and emulsifier, and the concentrate is diluted with emulsifier-containing water to the desired concentration. Cabbage leaves (Brassica oleracea) are treated by being dipped into the preparation of active compound of the desired concentration and are populated with larvae of the mustard beetle (Phaedon cochleariae) while the leaves are still moist. After the desired period of time, the kill in % is determined. 100% means that all beetle larvae have been killed; 0% means that none of the beetle larvae have been killed.

[3] = system: greenhouse red spider mite (Tetranychus urticae); experiment: Tetranychus test (OP-resistant/dip treatment); settings: 100 ppm; bean plants dipped
Experimental: To produce a suitable preparation of active compound, 1 part by weight of active compound is mixed with the stated amounts of solvent and emulsifier, and the concentrate is diluted with emulsifier-containing water to the desired concentration. Bean plants (Phaseolus vulgaris) which are heavily infested by all stages of the greenhouse red spider mite (Tetranychus urticae) are dipped into a preparation of active compound of the desired concentration. After the desired period of time, the effect in % is determined. 100% means that all spider mites have been killed; 0% means that none of the spider mites have been killed.

[4] = system: caterpillars of the army worm (Spodoptera frugiperda); experiment: Spodoptera frugiperda test (cabbage leaf dip)
Experimental: as §1, with “caterpillars” for “larvae”, “army worm (Spodoptera frugiperda)” for “mustard beetle (Phaedon cochleariae)”, “caterpillars” for “beetle larvae”

Alopecurus [5] = experiment: Pre-emergence test; settings: after three weeks
Experimental: (§2) To produce a suitable preparation of active compound, 1 part by weight of active compound is mixed with the stated amount of solvent, the stated amount of emulsifier is added and the concentrate is diluted with water to the desired concentration. Seeds of the test plants are sown in normal soil. After about 24 hours, the soil is sprayed with the preparation of active compound such that the particular amounts of active compound desired are applied per unit area. The concentration of the spray liquor is chosen such that the particular amounts of active compound desired are applied in 1000 l of water/ha. After three weeks, the degree of damage to the plants is rated in % damage in comparison to the development of the untreated control. The figures denote: • 0%=no effect (like untreated control) • 100%=total destruction

Amaranthus [6] = experiment: Pre-emergence test; settings: after three weeks
Experimental: as §2

Setaria [7] = experiment: Pre-emergence test; settings: after three weeks
Experimental: as §2

Alopecurus [8] = experiment: Post-emergence test; settings: 250 g of ai/ha, after three weeks
Experimental: as §2, with “Test plants” for “Seeds”, “a height of 5-15 cm” for “the test plants”, “are” for “are sown in normal soil. After about 24 hours, the soil is”

Amaranthus [9] = experiment: Post-emergence test; settings: 250 g of ai/ha, after three weeks
Experimental: as §2, with “Test plants” for “Seeds”, “a height of 5-15 cm” for “the test plants”, “are” for “are sown in normal soil. After about 24 hours, the soil is”

Setaria [10] = experiment: Post-emergence test; settings: 250 g of ai/ha, after three weeks
Experimental: as §2, with “Test plants” for “Seeds”, “a height of 5-15 cm” for “the test plants”, “are” for “are sown in normal soil. After about 24 hours, the soil is”

Sinapis [11] = experiment: Post-emergence test; settings: 250 g of ai/ha, after three weeks
Experimental: as §2, with “Test plants” for “Seeds”, “a height of 5-15 cm” for “the test plants”, “are” for “are sown in normal soil. After about 24 hours, the soil is”

Sugar beet = experiment: Post-emergence test; settings: 250 g of ai/ha, after three weeks
Experimental: as §2, with “Test plants” for “Seeds”, “a height of 5-15 cm” for “the test plants”, “are” for “are sown in normal soil. After about 24 hours, the soil is”

Echinochloa = experiment: Pre-emergence test; settings: 2000 g of ai/ha, after three weeks
Experimental: as §2

Sinapis [12] = experiment: Pre-emergence test; settings: after three weeks
Experimental: as §2

Meloidogyne incognita = experiment: Meloidogyne test (gall formation on lettuce roots); settings: 20 ppm; nematicidal action by gall formation, 100% = no galls
Experimental: To produce a suitable preparation of active compound, 1 part by weight of active compound is mixed with the stated amounts of solvent and emulsifier, and the concentrate is diluted with water to the desired concentration. Containers are filled with sand, solution of active compound, Meloidogyne incognita egg/larvae suspension and lettuce seeds. The lettuce seeds germinate and the plants develop. On the roots, galls are formed. After the desired period of time, the nematicidal action is determined in % by the gall formation. 100% means that no galls have been found; 0% means that the number of galls on the treated plants corresponds to that of the untreated control.

Botrytis cinerea = experiment: Botrytis test (bean)/protective; settings: 500 g/ha, protective, 2 days after inoculation
Experimental: To produce a suitable preparation of active compound, 1 part by weight of active compound is mixed with the stated amounts of solvent and emulsifier, and the concentrate is diluted with water to the desired concentration. To test for protective activity, young plants are sprayed with the preparation of active compound at the stated application rate. After the spray coating has dried on, 2 small pieces of agar colonized by Botrytis cinerea are placed onto each leaf. The inoculated plants are placed in a dark chamber at about 20° C. and 100% relative atmospheric humidity. 2 days after the inoculation, the size of the infested areas of the leaves is evaluated. 0% means an efficacy which corresponds to that of the control, whereas an efficacy of 100% means that no infection is observed.

Avena fatua = experiment: Pre-emergence test; settings: 125 g of ai/ha, after three weeks
Experimental: as §2

[13] = system: larva (L3) of the army worm (Spodoptera frugiperda); experiment: Spodoptera frugiperda test/synthetic feed; settings: 1000 ppm; synthetic feed
Experimental: To produce a suitable preparation of active compound, 1 part by weight of active compound is mixed with the stated amounts of solvent and emulsifier, and the concentrate is diluted with emulsifier-containing water to the desired concentration. A stated amount of the preparation of active compound of the desired concentration is pipetted onto a standardized amount of synthetic feed. In 6 replications, in each case one larva (L3) of the army worm (Spodoptera frugiperda) is placed onto the feed. After the desired period of time, the kill in % is determined. 100% means that all animals have been killed; 0% means that none of the animals have been killed.

Cc1cc(C)c(C2=C(O)C3(CCC(OCCOC(C)C)CC3)NC2=O)c(C)c1C (single isomer, unassigned) [Ex. I-1-a-2]
Kill rate in % after 6d ([1]; 1000 ppm): 100% | Kill rate in % after 7d [2]: 100% | Kill rate in % after 7d [3]: 95%

COCCOC1CCC2(CC1)NC(=O)C(c1c(C)cc(C)c(C)c1C)=C2O (single isomer, unassigned) [Ex. I-1-a-3]
Kill rate in % after 7d [2]: 100% | Kill rate in % after 7d [3]: 98%

COCCOC1CCC2(CC1)NC(=O)C(c1c(C)cc(C)cc1C)=C2O (single isomer, unassigned) [Ex. I-1-a-4]
Kill rate in % after 6d ([1]; 1000 ppm): 90% | Kill rate in % after 7d ([4]; 1000 ppm): 100% | % damage (Alopecurus [5]; 250 g of ai/ha): 80% | % damage (Amaranthus [6]; 250 g of ai/ha): 95% | % damage (Setaria [7]; 250 g of ai/ha): 100%

COCCOC1CCC2(CC1)NC(=O)C(c1cc(C)ccc1C)=C2O (single isomer, unassigned) [Ex. I-1-a-5]
Kill rate in % after 6d ([1]; 1000 ppm): 98% | Kill rate in % after 7d ([4]; 1000 ppm): 100%

Cc1cc(C)c(C2=C(O)C3(CCC(OCC4CCCO4)CC3)NC2=O)c(C)c1C (single isomer, unassigned) [Ex. I-1-a-6]
Kill rate in % after 7d [2]: 100%

Cc1cc(C)c(C2=C(O)C3(CCC(OCC4CCCO4)CC3)NC2=O)cc1C (single isomer, unassigned) [Ex. I-1-a-8]
Kill rate in % after 7d ([4]; 1000 ppm): 100%

Cc1ccc(C)c(C2=C(O)C3(CCC(OCC4CCCO4)CC3)NC2=O)c1 (single isomer, unassigned) [Ex. I-1-a-9]
Kill rate in % after 7d [2]: 100%

Cc1cc(Cl)cc(C)c1C1=C(O)C2(CCC(OCC3CCCO3)CC2)NC1=O (single isomer, unassigned) [Ex. I-1-a-10]
Kill rate in % after 7d [2]: 100% | % damage (Alopecurus [8]): 70% | % damage (Amaranthus [9]): 90% | % damage (Setaria [10]): 95% | % damage (Sinapis [11]): 80% | % damage (Sugar beet): 0%

C=CCOC1CCC2(CC1)NC(=O)C(c1c(C)cc(Cl)cc1C)=C2O (single isomer, unassigned) [Ex. I-1-a-11]
Kill rate in % after 7d ([4]; 500 ppm): 100% | Kill rate in % after 7d [3]: 95% | % damage (Echinochloa): 100% | % damage (Sinapis [12]; 2000 g of ai/ha): 90%

C=CCOC1CCC2(CC1)NC(=O)C(c1c(C)cc(Cl)cc1Cl)=C2O (single isomer, unassigned) [Ex. I-1-a-12]
Kill rate in % after 7d ([4]; 500 ppm): 100% | % damage (Amaranthus [6]; 2000 g of ai/ha): 90%

C=CCOC1CCC2(CC1)NC(=O)C(c1c(C)cc(Cl)cc1Cl)=C2O (single isomer, unassigned) [Ex. I-1-a-13]
% damage (Alopecurus [5]; 2000 g of ai/ha): 95% and 90%

Cc1cc(C)c(C2=C(O)C3(CCC(OCc4ccccc4Cl)CC3)NC2=O)cc1C (single isomer, unassigned) [Ex. I-1-a-20]
Kill rate in % after 7d [2]: 100%

Cc1ccc(C)c(C2=C(O)C3(CCC(OCc4ccccc4Cl)CC3)NC2=O)c1 (single isomer, unassigned) [Ex. I-1-a-21]
Kill rate in % after 7d [2]: 100%

Cc1cc(C)c(C2=C(O)C3(CCC(OCc4cccc(Cl)c4)CC3)NC2=O)c(C)c1C (single isomer, unassigned) [Ex. I-1-a-22]
Effect in % after 14d (Meloidogyne incognita): 98% | Kill rate in % after 7d [2]: 100%

Cc1ccc(C)c(C2=C(O)C3(CCC(OCc4cccc(Cl)c4)CC3)NC2=O)c1 (single isomer, unassigned) [Ex. I-1-a-25]
Kill rate in % after 7d [2]: 100%

Cc1cc(C)c(C2=C(O)C3(CCC(OCc4ccc(Cl)cc4)CC3)NC2=O)c(C)c1C (single isomer, unassigned) [Ex. I-1-a-26]
Effect in % after 14d (Meloidogyne incognita): 100% | Kill rate in % after 7d [2]: 100%

Cc1ccc(-c2ccc(Cl)cc2)cc1C1=C(O)C2(CCC(OCc3ccc(Cl)cc3)CC2)NC1=O (single isomer, unassigned) [Ex. I-1-a-30]
Kill rate in % after 6d ([1]; 500 ppm): 100% | Kill rate in % after 7d [3]: 99% | % efficacy (Botrytis cinerea): 100%

O=C1NC2(CCC(OCc3ccc(Cl)cc3)CC2)C(O)=C1c1cc(-c2ccc(Cl)cc2)ccc1Cl (single isomer, unassigned) [Ex. I-1-a-31]
Effect in % after 14d (Meloidogyne incognita): 95% | Kill rate in % after 7d ([4]; 500 ppm): 100% | Kill rate in % after 7d [3]: 99%

C=CCOC1CCC2(CC1)NC(=O)C(c1c(C)cc(Cl)cc1C)=C2OC(=O)OCC (single isomer, unassigned) [Ex. I-1-c-2]
Effect in % after 14d (Meloidogyne incognita): 100% | Kill rate in % after 6d ([1]; 500 ppm): 95%

CCOC(=O)OC1=C(c2c(C)cc(C)cc2C)C(=O)NC12CCC(OCc1ccccc1)CC2 (single isomer, unassigned) [Ex. I-1-c-3]
% damage (Alopecurus [5]; 125 g of ai/ha): 90% | % damage (Avena fatua): 70% | % damage (Setaria [7]; 125 g of ai/ha): 100% | % damage (Sinapis [12]; 125 g of ai/ha): 90%

Cc1ccc(C)c(C2=C(OC(=O)C(C)C)C3(CCC(OCc4ccccc4)CC3)NC2=O)c1 (stereo not drawn) [Ex. I-1-b-1]
Kill rate in % after 7d [13]: 100%

Reference: patent US7754654B2, “Substituted spirocyclic ketoenols” (Bayer CropScience AG, priority 2002, dated 2010)
